The target in data set [1] is T1, MPO (Homo sapiens, UniProt P05164).
T1 sequence (P05164 49-745): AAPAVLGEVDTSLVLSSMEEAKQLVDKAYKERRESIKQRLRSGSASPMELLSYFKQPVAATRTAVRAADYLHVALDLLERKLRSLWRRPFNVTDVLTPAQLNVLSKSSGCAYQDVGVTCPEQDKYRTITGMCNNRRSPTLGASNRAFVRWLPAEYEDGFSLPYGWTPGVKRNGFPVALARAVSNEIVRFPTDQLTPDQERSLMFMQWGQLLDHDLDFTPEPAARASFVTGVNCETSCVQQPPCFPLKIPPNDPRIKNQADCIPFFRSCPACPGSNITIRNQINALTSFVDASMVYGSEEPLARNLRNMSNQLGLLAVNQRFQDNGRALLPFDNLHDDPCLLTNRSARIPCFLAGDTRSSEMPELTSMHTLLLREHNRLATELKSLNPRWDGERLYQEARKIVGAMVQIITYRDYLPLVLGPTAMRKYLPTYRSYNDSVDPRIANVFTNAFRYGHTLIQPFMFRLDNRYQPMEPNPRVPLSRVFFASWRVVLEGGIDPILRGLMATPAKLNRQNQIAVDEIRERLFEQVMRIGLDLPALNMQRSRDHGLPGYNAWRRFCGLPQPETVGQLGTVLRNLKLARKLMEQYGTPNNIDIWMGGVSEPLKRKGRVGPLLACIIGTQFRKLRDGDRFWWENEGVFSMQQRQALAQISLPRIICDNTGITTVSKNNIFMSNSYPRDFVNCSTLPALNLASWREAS
The data set is described as follows: MPO-PET matrigel implantation imaging in mice. The class given is in vivo, mouse. Particulars: for Background, organ uptake and defluorination: matrigel PET imaging in mice. The method, then: 300 μL of 1:1 mixture of matrigel and minimal essential medium (MEM) containing GOX and/or different concentrations of MPO (0, 15 μL, 30 μL) was injected subcutaneously into the ventral aspect of the thighs of the mouse. After 30 min, 300-600 μCi of MPO Compound 9 was injected intravenously. After 2 h, the mice were scanned using PET scanning.
To validate the efficacy of the MPO PET agents for in vivo applications, matrigel implantation experiments were performed by embedding MPO in matrigel along with glucose oxidase (GOX) as H2O2 donor. Matrigel is a gelatinous protein mixture that is liquid at 0° C. but forms a gel at body temperature while remaining diffusible to molecules from the bloodstream when injected into living animals (see e.g., Chen et al, Radiology, 2006, 240(2):473-481). The MPO/matrigel mixtures were injected subcutaneously to the thighs of the mice followed by injection of the MPO PET tracers 30 min later. […] The signal of MPO side was around 1.7 fold higher compared to that of control side.
To verify the specificity of Compound 9 over MPO, different concentrations of MPO (0, 15 μL, 30 μL) were embedded in matrigel for the implantation experiments.

A further data set deals with MPO activity. The data set is described as follows: Irritant contact dermatitis (PMA) in vivo FRI. Also on record: species or system mouse. Particulars: wildtype mice. The method, then:
Female C57Bl/6J (wildtype, Jackson laboratories, Bar Harbor, Me.) and MPO-knockout (KO, Jackson laboratories) mice were treated topically with 0.08 μmol Phorbol 12-myristate 13-acetate (PMA, Sigma, St. Louis, Mo.) on one hind-paw and with vehicle on the other to induce irritant contact dermatitis. This model is well described in the literature and triggers rapid inflammation with influx of neutrophils into the skin. 6 hours after induction, mice were injected intravenously with either 2 nmol of Compound 3 or the non-specific analogue, Compound 18. 1 hour later, 2.5 μg SA-647 was injected intravenously to bind to the biotinylated Compound 3. Mice underwent in vivo imaging using a dedicated in vivo FRI system as described above in Example 11.

Data set [2] concerns the target T2, MPO (Mus musculus, UniProt P11247).
T2 sequence (P11247 139-718): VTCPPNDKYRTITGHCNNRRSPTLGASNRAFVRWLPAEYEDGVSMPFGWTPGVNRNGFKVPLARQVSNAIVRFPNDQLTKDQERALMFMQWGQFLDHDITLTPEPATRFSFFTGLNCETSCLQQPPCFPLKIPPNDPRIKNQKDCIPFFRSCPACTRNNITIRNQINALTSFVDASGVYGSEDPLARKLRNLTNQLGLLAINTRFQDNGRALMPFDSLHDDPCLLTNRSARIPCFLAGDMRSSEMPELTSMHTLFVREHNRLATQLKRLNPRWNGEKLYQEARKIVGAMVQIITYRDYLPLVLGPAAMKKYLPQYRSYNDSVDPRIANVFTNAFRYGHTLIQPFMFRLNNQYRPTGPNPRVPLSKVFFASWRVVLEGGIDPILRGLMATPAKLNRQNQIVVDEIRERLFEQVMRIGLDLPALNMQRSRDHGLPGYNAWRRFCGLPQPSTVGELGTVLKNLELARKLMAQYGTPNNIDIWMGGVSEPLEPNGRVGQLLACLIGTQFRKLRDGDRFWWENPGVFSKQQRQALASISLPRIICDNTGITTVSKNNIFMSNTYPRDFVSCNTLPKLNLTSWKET
The data set is described as follows: CFA paw inflammation PET imaging and treatment by MPO inhibitor PF-1355. The class given is in vivo. Also on record: from tissue; host or cells: inflamed forepaw of living mice (CFA). On the procedure:
Each pair contained one treated and one untreated, number of pairs, n=3. The 1/1 emulsion of CFA/PBS (40 μL) was injected subcutaneously on the dorsal side of one forepaw under isoflurane anesthesia, and PBS (40 μL) was injected on the other forepaw as control. After 1 h, the treated group was given PF-1355 (50 mg/kg) by gavage, then treated every 6 h for another 3 times, and the control group was treated with vehicle (10 mL/kg) accordingly. After 24 h, 300-600 uCi of Compound 9 was injected intravenously. After another 2 h, each pair of the mice was scanned side by side.
After validating the efficacy of the MPO Compound 9 in matrigel experiments, the specificity of the agent in inflammation was investigated. Complete Freund's Adjuvant (CFA) or its emulsion can cause inflammation when injected subcutaneously to the animal. The CFA emulsion was injected to one dorsal side of the forepaw of the mouse and the other side was injected with PBS. After 24 h, Compound 9 was injected intravenously and scanned 2 h after injection. […] To further verify the specificity of the MPO Compound 9, the mice were treated with MPO inhibitor PF-1355 1 h after CFA emulsion injection and continuously every 6 h afterwards for 4 times before injecting the Compound 9. The control group was treated with vehicle after CFA injection. Then each pair of the mice from treated and untreated groups were scanned.

Molecules are shown by their SMILES.

For `O=C(Cc1c[nH]c2ccc(O)cc12)NC(Cc1c[nH]c2ccc(O)cc12)C(=O)NCCCCCC[18F]` (centres unmarked) [Compound 5], on MPO [1], the “Background, organ uptake and defluorination” value was “high heart and liver uptake and high background were observed from defluorination”.
Consider `O=C(NC(Cc1c[nH]c2ccc(O)cc12)C(=O)NCCc1c[nH]c2ccc(O)cc12)c1ccc([18F])cc1` (centres unmarked) [Compound 7], for which the “PET signal of MPO side” value at MPO [1] (matrigel MPO thigh vs control thigh) is listed as “low signal”. Further, at MPO [1], the “Background, organ uptake and defluorination” value was “high heart uptake”.
For the compound `O=C(CCCC[C@@H]1SC[C@@H]2NC(=O)N[C@@H]21)N[C@@H](Cc1c[nH]c2ccccc12)C(=O)NCCc1c[nH]c2ccccc12` [Compound 18, N—((S)-1-((2-(1H-indol-3-yl)ethyl)amino)-3-(1H-indol-3-yl)-1-oxopropan-2-yl)-5-((3aS,4S,6aR)-2-oxohexahydro-1H-thieno[3,4-d]imidazol-4-yl)pentanamide], in the data set on MPO activity, the “Fluorescence intensity, PMA-treated hind-paw” value came to 50.1±5.8 RFU and the “Fluorescence intensity, vehicle-treated hind-paw” value was 28.4±5.5 RFU.
For `COc1ccc(OC)c(-c2cc(=O)[nH]c(=S)n2CC(N)=O)c1` [PF-1355], the “Ratio of PF-1355 treated to untreated” value at MPO [2] (mean of three pairs) is given as “.410”. Further, on MPO [2] (mean of three pairs, PF-1355 50 mg/kg by gavage, Compound 9 PET), the % Inhibition (commonly the share of the control response that was lost under treatment) is 59%. In addition, the “Compound 9 uptake in inflamed paw, PF-1355 treated” value is given as “.0622 SUV” at MPO [2] (mean of three pairs, PF-1355 50 mg/kg by gavage); “.0555 SUV” on MPO [2] (mouse pair 1, PF-1355 50 mg/kg by gavage); “.0736 SUV” on MPO [2] (mouse pair 2, PF-1355 50 mg/kg by gavage); “.0575 SUV” at MPO [2] (mouse pair 3, PF-1355 50 mg/kg by gavage).

Source of the values: US12570606B2, “Myeloperoxidase imaging agents” (The General Hospital Corporation, priority 2016, dated 2026).
